In patent US7429448B2, “Therapeutic use of the SMR1 protein and active derivatives thereof” (Institut Pasteur, priority 1998, dated 2008):
Square brackets hold non-standard residues; d marks the D form. Ends that are not written are not given here. pGlu = O=C1CC[C@@H](C(=O)O)N1

Experiments:
[1] = rat, in vivo
Experimental: FIG. 4. Quantitative profile of radioactivity in various tissues following administration of 100 pmoles ^3H-hexapeptide, 60 min post-dose or plus 100 nmoles unlabelled peptide to non specific binding.
Quantification was assessed using a spectrometer and calculated as cpm/mg protein from whole tissue extracts.
FIG. 5. Quantitative profile of radioactivity in various tissues following administration of 5 pmoles ^125I-undecapeptide (VRGPRRQHNPR, SEQ ID NO: 7), 10 min post-dose or plus 100 nmoles unlabeled peptide to non specific binding.
Quantification was assessed using a gama-spectrometer and calculated as cpm/g tissue.

[2] = Chromatographic characterization of radioactive peptide uptake by tissues; type: in vivo, rat; conditions: 180 min after injection
Experimental: The chromatographic characteristics of the labeled compound associated, in vivo, to target organs were assessed by HPLC.
At selected time points (2 and 180 min.) after administration of tritiated pentapeptide, the anesthetized rats were sacrificed (cardiac blood puncture) and tissues quickly removed on ice. The tissues were immediately homogenized at 4° C. in 5-10 volumes of 0.1 M chlorhydric acid using a potter homogenizer (demineralization of bone tissue was realized after 24-48 h at 4° C. in guanidium hydrochloride and EDTA pretreatment, 4 M and 0.25 M final concentration, respectively). Homogenates were centrifuged for 30 min. at 4° C. and 15,000 g. To determine total radioactivity, aliquots of the supernatant solution were added to 50 volumes of Biofluor (NEN, Dupont de Nemours, France) and counted in a liquid scintillation counter.
To determine the radioactivity in the pentapeptide fraction, aliquots of the tissue extracts were submitted to a methanol-extraction procedure (Rougeot et al., 1994) after neutralization with Tris/HCl pH 8.5 containing 16 mM DTPA (DiethyleneTriaminePenta-Acetic acid, Sigma, France). […] Fractions were collected every 60 sec. and analyzed for radioactivity using a liquid scintillation counter.

[3] = tested on: ^3H-pentapeptide binding sites; experiment: Cellular localization of ^3H-pentapeptide binding sites by light microscopic autoradiography; type: in vivo, rat
Experimental: (§1) The cellular-site localization for physiological concentrations of labeled pentapeptide was investigated by paraffin- or resin-section microscopic autoradiography procedure. Sixty minutes after ^3H-pentapeptide (555 KBq, 160 ng or 250 pmoles) i.v. administration, the anesthetized male rats were perfused via the jugular veins with ice-cold Krebs Ringer Bicarbonate Glucosed buffer and then 0.5% paraformaldehyde/0.5% glutaraldehyde fixative PBS buffer (plus glucose 1.6%, CaCl2 0.002% and DMSO 1%) (50 ml/5 min. for each). Tissues were rapidly removed and harvested for paraffin sectioning (Paraplast plus-Sherwood medical, OSI, France) or for resin sectioning (histo-resin Leica, France). All sections were cut at 5 microns (Reichert Jung for paraffin and RM2155 Leica for resin sections) and mounted on Superfrost/Plus glass slides (non gelatin-coated). Paraffin was removed with xylene, and sections were carried through a descending, then an ascending ethanol series (from 100 to 50%, V/V and reverse). Dried sections were then processed for light microscope autoradiography by attaching nuclear emulsion-coated (Kodak, NTB2, diluted 1:1 with distilled water) coverslips to them. After air drying for 2 hrs at room temperature the autoradiographs were exposed for 6 to 10 weeks in light-tight boxes at 4° C. Radiosensitive coverslips were developed in Kodak D19 (3 min.) developer and fixed in Kodak fixer (3 min.) Sections were counterstained with Harris' hematoxylin (Prolabo, France) and Toluidine blue (Sigma, France), dehydrated and mounted in Eukitt medium. The tissue and overlying silver grains were viewed and photographed with a Leica photomicroscope equipped with bright-field optics (DMRD Leitz, Leica).

[4] = rat, in vivo; remark: listed apart in the source
Experimental: Labeled compound i.e. 6.66 MBq, 3 nmoles or 2 mg for whole body autoradiography (WBA) and 370-555 KBq, 170-250 pmoles or 110-160 ng for the pharmacokinetic and cellular-site distribution studies was diluted in 100-200 ml of phosphate-buffered saline (PBS Dulbecco's, Bio Media, France) and administered intravenously into the jugular vein of anesthetized rats (halothan for WBA or pentobarbital for all the other experiments).
The target tissues for the final secretory maturation product of SMR1, the pentapeptide, was examined, in vivo, by the whole body autoradiography procedure according to the method of Ullberg (Ullberg et al., 1981).
The five week-old rats were sacrificed under halothane, at 90 sec., 3, 60 and 240 min. after i.v. injection of 3 nmoles (6.66 MBq or 2 μg) of tritiated pentapeptide. At the selected time, the restrained animal was immediately immersed in a −80° C. mixture of dry ice and isopentane, to prevent artifactual tracer redistribution. After 48 hours in self-sealing plastic stored at −30° C., the animal was then blocked in mounting medium. Whole body sagittal sections (20 mm) of the frozen rat were made at −30° C. with a cryostat (whole body slicing microtome Leitz 400 with a chest mobile freezer Leitz O M, Leica, France). Sections adhering to Scotch tape were left in a freezer, temperature −30° C., for 4 days to insure complete drying. The tapes were placed in a film cassette with ^3H Hyperfilm (Amersham, France) at −20° C. After two weeks the films were developed in Kodak D19 developer and fixed in Kodak fixer.
Data from whole body sections or individual organ sections placed in the gas-chamber detector were collected for 8 hr. or 50 hr., respectively. The number of counts per pixel was recorded in the β imager 2200 (Biospace, France) with a surface detector of 20×20 cm^2, followed by computer-assisted image analysis with the β Vision program using a HP Vectra computer. The tritium activity was determined as counts/mm^2. The linearity of this method of detection allowed measurement of the non specific binding of ^3H-pentapeptide, measured in various structures or compartments within the section with apparent non binding sites for the peptide (background tissues, e.g. muscle and cardiac blood except brain and spinal cord) or in the same labeled structure, in displacement experiments.

[5] = Pentapeptide metabolic and pharmacokinetic studies after i.v. bolus of tritiated pentapeptide; type: in vivo, rat
Experimental: The in vivo time course of distribution, metabolism and elimination of the pentapeptide was investigated in anesthetized adult male rats using physiological concentrations of circulating tritiated pentapeptide.
Anesthetized male rats were given a bolus intravenous injection of 170 pmoles or 110 ng tritiated pentapeptide diluted in 100 μl PBS Dulbecco's. Blood was collected in tubes containing a mixture of peptidase inhibitors described above, via a silastic catheter implanted into the external jugular vein. Blood was withdrawn just before and 2, 4, 6, 8, 10, 20, 30, 45, 60, 90 and 120 min. after peptide administration. Two milliliters of blood per rat were taken in all and the entire urinary bladder content was collected at a last selected point.
The biological samples were submitted to centrifugation and Parapak Q extraction conditions, as described above. Chromatrography using HPLC procedure described above and in the reference (Rougeot et al., 1994) was then applied to each extracted sample. The ODS AQ RP-C18 was used for identification of amino-terminal metabolites and Pep RPC HR C18 (Pharmacia, France) for identification of carboxyl-terminal metabolites. The radioactivity content of samples before and after chromatographic separations was determined using a beta counter (Kontron, MR300).

[6] = tested on: pentapeptide binding sites; experiment: In vivo displacement of ^3H-pentapeptide uptake by coinjection of 100-fold excess unlabeled peptide; parameters: species or system rat; conditions: for specific labeling percentage: 60 min, 100-fold excess unlabeled peptide
Description: Biological receptor sites have two essential characteristics that allow specific binding to be identified, in vivo; they have a high affinity for the ligand and the binding is saturable (Whitcomb et al., 1993). Therefore, displacement experiments, using parallel systemic administration of an excess of the corresponding unlabeled peptide has been performed. Furthermore, the specific cellular localization of labeled pentapeptide to target tissues has been identified by section microscopic autoradiography.
as §1
The tritium activity was determined as counts/mm^2.
In the case of radioactive quantification of organ sections or acid extracts, using a liquid scintillation counter (MR300Kontron), the tritium activity was determined as cpm/mg protein. Protein concentration was determined by the Bradford method (Bradford et al., 1976).

[7] = biological target: anti-pentapeptide serum (rabbit antiserum raised against QHNPR conjugated to egg albumin); experiment: competitive liquid phase RIA, displacement of 125I-labelled pentapeptide from the antiserum
[8] = single i.v. injection of 110 ng

For VRGPRRQHNPR [undecapeptide], the preferred target organs [1] was “kidney and pancreas” and the “target organs compared with the pentapeptide” value [1] was “almost the same as the target organs of the pentapeptide”.

For “QHNPR [pentapeptide, (Gln1)-His-Asn-Pro-Arg, tracer form is (Glp1/Gln1)-His-Asn-(3,4^3H)Pro-Arg]”, the “radioactive extract representing metabolites” value ([2]; DTPA) was 8±6%, the “radioactive peptide fraction extracted by methanol” value ([2]; DTPA 16 mM added) was 53±9% and the “cellular localization of silver grains” value ([3]; bone tissue) was “the trabeculae bone spaces”. The “cellular localization of silver grains” value ([3]; dental tissue, upper incisor root) was “over the entire dentin layer”, the “cellular localization of silver grains” value ([3]; glandular gastric mucosa) was “over the chief or peptic cells” and the cellular label ([3]; glomeruli, epithelia of distal and collecting tubules) was “No specific cellular label”. The “cellular localization of silver grains” value ([3]; kidney, 60 min, physiological concentration) was “over the epithelial cells of the S3 segment of the straight portion of the proximal tubules”, the cellular label ([3]; pancreatic ducts and islets of Langerhans) was “No label was observed” and the “cellular localization of silver grains” value ([3]; pancreatic tissue) was “over the cells of acini”. For the same molecule, the cellular label ([3]; submandibular tissue) was “no selective cell association of label was identifiable”, the “radioactivity in the intestinal content” value [4] was “No radioactivity was found” and the “time by which binding to tissue sites has occurred” value [4] was no more than 90 s. The “time over which binding is stable” value [4] was 240 min, the “tissue to blood ratio” value [4] was roughly 2 and the “amount eliminated through glomerular filtration” value ([5]; over a 60 min period, anesthetized rats, 170 pmoles dose) was 6 pmol. The “pentapeptide-binding substance complex as share of the circulating peptide fraction” value ([5]; plasma) was “approximately 45%”, the “urine radioactivity that is pentapeptide metabolites” value ([5]; rat, in vivo) was “Approximately 80%” and the “time from which plasma concentration is back close to a basal level” value [5, 8] was no less than 30 min. For the same molecule, the “time to maximal plasma level” value [5, 8] was no more than 2 min, the “infused pentapeptide metabolized in the bloodstream” value ([5]; within 4 min) was 35% and the specific labeling percentage ([6]; glandular mucosa of the stomach) was 38-61%. The specific labeling percentage ([6]; long bone) was 29-38%, the specific labeling percentage ([6]; pancreatic lobules) was 37-55% and the “displacement of uptake by excess cold ligand” value ([6]; renal outer medullary) was “almost complete displacement”. For the same molecule, the specific labeling percentage ([6]; submandibular lobules) was 51-91%.

With RQHNPR [hexapeptide] the preferred target organs [1] was “kidney and pancreas”, the “retention by the glandular mucosa of stomach” value [1] was “very efficiently retained” and the “target organs compared with the pentapeptide” value [1] was “almost the same as the target organs of the pentapeptide”.

Molecule [pGlu]HNPR [(Glp1)-His-Asn-Pro-Arg] has an amount of standard for 50% displacement [7] of less than 570 fmol and a detection limit (80% binding) [7] of 106 fmol.

Work on QHNP [tetrapeptide sequence (QHNP)] yielded a cross-reactivity [7] of less than 0.01%.

With QHNPR [(Gln1)-His-Asn-Pro-Arg, SMR1-derived pentapeptide QHNPR (unlabelled)] the amount of standard for 50% displacement [7] was less than 570 fmol and the detection limit (80% binding) [7] was 106 fmol.
